# Reference: patent publication US11459308B2 (priority 2016, dated 2022)
# Columns and labels:
# rVSV-EBOV GP = assay: microbe, parasite or virus in culture; format: cell-based, Zaire Ebolavirus; conditions: Zaire ebolavirus, read-out: rVSV-EBOV IC50
# in vitro = conditions: African green monkey
# [1] = test system: authentic EBOV (EBOV-Zaire 1995); assay: microbe, parasite or virus in culture; format: cell-based, Ebola virus; conditions: Zaire ebolavirus, Vero, 48 h, read-out: infectious EBOV-Z IC50
Structure (SMILES),IC50 (rVSV-EBOV GP),CC50 (in vitro),IC50 [1]
"CCOC(=O)CN1CCN(c2ccc([N+](=O)[O-])c(NC(c3ccccc3)c3ccccc3)c2)CC1 [MBX 3947, 2-(benzhydrylamino)-4-[4-(2-ethoxy-2-oxoethyl)piperazin-1-yl]-1-nitrobenzene]",18 µM,> 100 µM,–
"Cc1ccc(C(Nc2cc(N3CCN(C)CC3)ccc2[N+](=O)[O-])c2ccccc2)cc1 (stereo not drawn) [MBX 3687, 2-[(phenyl)(p-tolyl)methylamino]-4-(4-methylpiperazin-1-yl)nitrobenzene]",2.2 µM,16 µM,–
"CN1CCN(c2ccnc(NC(c3ccccc3)c3ccccc3)c2)CC1 [MBX 3586, 2-(benzhydrylamino)-4-(4-methylpiperazin-1-yl)pyridine]",7 µM,70 µM,2.6 µM
"CN1CCN(c2ccc3[nH]c(=O)n(C(c4ccccc4)c4ccccc4)c3c2)CC1 [MBX 3526, 1-benzhydryl-6-(4-methylpiperazin-1-yl)-1H-benzo[d]imidazol-2(3H)-one]",2.9 µM,26 µM,–
"COc1cccc(C(Nc2cc(N3CCN(C)CC3)ccc2[N+](=O)[O-])c2ccccc2)c1 (stereo not drawn) [MBX 3641, 2-[(3-methoxyphenyl)(phenyl)methylamino]-4-(4-methylpiperazin-1-yl)nitrobenzene]",> 25 µM,26 µM,–
"O=[N+]([O-])c1ccc(N2CCN(Cc3ccccn3)CC2)cc1NC(c1ccccc1)c1ccccc1 [MBX 3558, 1-(benzhydrylamino)-5-[4-(pyridin-2-ylmethyl)piperazin-1-yl]-2-nitrobenzene]",4 µM,> 200 µM,2.8 µM
"CN1CCN(c2ccc([N+](=O)[O-])c(NC(c3ccccc3)c3ccncc3)c2)CC1 (stereo not drawn) [MBX 3670, 2-[(pyridin-4-yl)(phenyl)methylamino]-4-(4-methylpiperazin-1-yl)nitrobenzene]",4.5 µM,45 µM,–
"O=[N+]([O-])c1ccc(N2CCNCC2)cc1NC(c1ccccc1)c1ccccc1 [MBX 3556, 1-(benzhydrylamino)-5-(piperazin-1-yl)-2-nitrobenzene]",1.4 µM,5.2 µM,1.1 µM
"CN1CCN(c2ccc(NS(C)(=O)=O)c(NC(c3ccccc3)c3ccccc3)c2)CC1 [MBX 3536A, 2-(benzhydrylamino)-4-(4-methylpiperazin-1-yl)-1-(methylsulfonamido)benzene]",2.9 µM,26 µM,3.1 µM
"CN(C)C1CCN(c2ccc([N+](=O)[O-])c(NC(c3ccccc3)c3ccccc3)c2)CC1 [MBX 3749, 2-(benzhydrylamino)-4-[4-(dimethylamino)piperidin-1-yl]-1-nitrobenzene]",0.7 µM,7.7 µM,–
"c1ccc(C(c2ccccc2)n2cnc3ccc(N4CCN5CCCC5C4)cc32)cc1 (stereo not drawn) [MBX 4210, 1-benzhydryl-6-(hexahydropyrrolo[1,2-a]pyrazin-2(1H)-yl)-1H-benzo[d]imidazole]",1.6 µM,> 200 µM,1.8 µM
"O=[N+]([O-])c1ccc(N2CCSCC2)cc1NC(c1ccccc1)c1ccccc1 [MBX 3699, 2-benzhydrylamino-4-thiomorpholino-1-nitrobenzene]",> 25 µM,> 100 µM,–
"CN1CCN(c2ccc([N+](=O)[O-])c(NC(c3ccccc3)c3cccc(Cl)c3)c2)CC1 (stereo not drawn) [MBX 3643, 2-[(3-chlorophenyl)(phenyl)methylamino]-4-(4-methylpiperazin-1-yl)nitrobenzene]",0.85 µM,21 µM,> 20 µM
"CN1CCN(c2ccc([N+](=O)[O-])c(NC(=O)c3ccccc3)c2)CC1 [MBX 4328, N-[5-(4-methylpiperazin-1-yl)-2-nitrophenyl]benzamide]",11.5 µM,60 µM,–
"CC(C)N(CCNc1ccc([N+](=O)[O-])c(NC(c2ccccc2)c2ccccc2)c1)C(C)C [MBX 4336, N^3-benzhydryl-N^1-(2-(diisopropylamino)ethyl)-4-nitrobenzene-1,3-diamine]",0.39 µM,12 µM,0.56 µM
"O=[N+]([O-])c1ccc(-c2ccncc2)cc1NC(c1ccccc1)c1ccccc1 [MBX 4277, N-benzhydryl-2-nitro-5-(pyridin-4-yl)aniline]",14.6 µM,40 µM,–
"c1ccc(C(c2ccccc2)n2cnc3ccc(N4CCNCC4)nc32)cc1 [MBX 4214, 3-benzhydryl-5-(piperazin-1-yl)-3H-imidazo[4,5-b]pyridine]",3 µM,105 µM,–
"CCOC(=O)CC(Nc1cc(N2CCN(C)CC2)ccc1[N+](=O)[O-])c1ccccc1 (stereo not drawn) [MBX 4329, ethyl 3-((5-(4-methylpiperazin-1-yl)-2-nitrophenyl)amino)-3-phenylpropanoate]",10.4 µM,45 µM,–
"c1ccc(C(c2ccccc2)n2cnc3cnc(N4CCNCC4)cc32)cc1 [MBX 4215A, 1-benzhydryl-6-(piperazin-1-yl)-1H-imidazo[4,5-c]pyridine bis(2,2,2-trifluoroacetate)]",2.8 µM,94 µM,–
"COc1ccccc1C(Nc1cc(N2CCN(C)CC2)ccc1[N+](=O)[O-])c1ccccc1 (stereo not drawn) [MBX 3635, 2-[phenyl(2-methoxyphenyl)methylamino]-4-(4-methylpiperazin-1-yl)nitrobenzene]",2.5 µM,14 µM,–

Structure (SMILES),IC50 (rVSV-EBOV GP),CC50 (in vitro),IC50 [1]
O=[N+]([O-])c1ccc(N2CCOCC2)cc1NC(c1ccccc1)c1ccccc1 [PPZ-10],5.5 µM,> 100 µM,–
"O=[N+]([O-])c1ccc(-c2cccnc2)cc1NC(c1ccccc1)c1ccccc1 [MBX 4279, N-benzhydryl-2-nitro-5-(pyridin-3-yl)aniline]",12.4 µM,49 µM,–
"CN1CCN(c2ccc([N+](=O)[O-])c(NC(c3ccccc3)c3cccnc3)c2)CC1 (stereo not drawn) [MBX 3648, 2-[(pyridin-3-yl)(phenyl)methylamino]-4-(4-methylpiperazin-1-yl)nitrobenzene]",> 25 µM,17 µM,–
"CN1CCN(c2ccc([N+](=O)[O-])c(NC(c3ccccc3)c3ccc(Cl)cc3)c2)CC1 (stereo not drawn) [MBX 3644, 2-[(4-chlorophenyl)(phenyl)methylamino]-4-(4-methylpiperazin-1-yl)nitrobenzene]",1.4 µM,18 µM,–
"O=[N+]([O-])c1ccc(N2CCN(CCc3ccccc3)CC2)cc1NC(c1ccccc1)c1ccccc1 [MBX 3623, 2-benzhydrylamino-4-(4-phenethylpiperazin-1-yl)nitrobenzene]",> 25 µM,> 100 µM,–
"CN1CCN(c2ccc3ncn(C(C)(C)c4ccccc4)c3c2)CC1 [MBX 4213, 6-(4-methylpiperazin-1-yl)-1-(2-phenylpropan-2-yl)-1H-benzo[d]imidazole]",200 µM,> 200 µM,–
"COc1ccc(C(Nc2cc(N3CCN(C)CC3)ccc2[N+](=O)[O-])c2ccccc2)cc1 (stereo not drawn) [MBX 3642, 2-[(4-methoxyphenyl)(phenyl)methylamino]-4-(4-methylpiperazin-1-yl)nitrobenzene]",> 25 µM,33 µM,–
"O=[N+]([O-])c1ccc(N2CCN(c3ccccc3)CC2)cc1NC(c1ccccc1)c1ccccc1 [MBX 3624, 2-benzhydrylamino-4-(4-phenylpiperazin-1-yl)nitrobenzene]",> 25 µM,> 100 µM,–
"O=[N+]([O-])c1ccc(N2CCC(N3CCCCC3)CC2)cc1NC(c1ccccc1)c1ccccc1 [MBX 3747, 2-(benzhydrylamino)-4-[(1,4′-bipiperidin)-1′-yl]-1-nitrobenzene]",0.58 µM,7.5 µM,–
"CN1CCC(N(C)c2ccc([N+](=O)[O-])c(NC(c3ccccc3)c3ccccc3)c2)CC1 [MBX 3742, 2-(benzhydrylamino)-4-[methyl(1-methylpiperidin-4-yl)amino]-1-nitrobenzene]",1.5 µM,3.3 µM,–
"CN1CCN(c2ccc([N+](=O)[O-])c(NC3(c4ccccc4)CCCC3)c2)CC1 [MBX 4296, 5-(4-methylpiperazin-1-yl)-2-nitro-N-(1-phenylcyclopentyl)aniline]",5.89 µM,> 200 µM,–
"CN1CCN(c2ccc([N+](=O)[O-])c(NC(c3ccccc3)c3ccccn3)c2)CC1 (stereo not drawn) [MBX 3647, 2-[(pyridin-2-yl)(phenyl)methylamino]-4-(4-methylpiperazin-1-yl)nitrobenzene]",> 25 µM,> 100 µM,–
"CCN(CC)c1ccc([N+](=O)[O-])c(NC(c2ccccc2)c2ccccc2)c1 [MBX 3696, 2-benzhydrylamino-4-(diethylamino)nitrobenzene]",> 25 µM,> 100 µM,–
"O=[N+]([O-])c1ccc(N2CCCCC2)cc1NC(c1ccccc1)c1ccccc1 [MBX 3702, 2-benzhydrylamino-4-(piperidin-1-yl)-1-nitrobenzene]",> 25 µM,> 100 µM,–
"CN1CCN(c2ccc([N+](=O)[O-])c(NC(c3ccccc3)c3ccccc3)c2)CC1=O [MBX 3695, 2-benzhydrylamino-4-(4-methyl-3-oxopiperazin-1-yl)nitrobenzene]",16 µM,> 100 µM,–
"c1ccc(C(c2ccccc2)n2cnc3ccc(N4CCN5CCCCC5C4)cc32)cc1 (stereo not drawn) [MBX 4211, 2-(1-benzhydryl-1H-benzo[d]imidazol-6-yl)octahydro-1H-pyrido[1,2-a]pyrazine]",2 µM,195 µM,–
"CN1CCCN(c2ccc([N+](=O)[O-])c(NC(c3ccccc3)c3ccccc3)c2)CC1 [MBX 3700, 2-benzhydrylamino-4-(4-methyl-1,4-diazepan-1-yl)-1-nitrobenzene]",< 0.1 µM,7.6 µM,–
"c1ccc(C(c2ccccc2)n2cnc3ccc(-c4cccnc4)cc32)cc1 [MBX 4294, 1-benzhydryl-6-(pyridin-3-yl)-1H-benzo[d]imidazole]",15.6 µM,59 µM,–
"CN1CCN(c2ccc([N+](=O)[O-])c(NC3(c4ccccc4)CC3)c2)CC1 [MBX 4295, 5-(4-methylpiperazin-1-yl)-2-nitro-N-(1-phenylcyclopropyl)aniline]",16.2 µM,58 µM,–
"c1ccc(C(c2ccccc2)n2cnc3ccc(-c4ccncc4)cc32)cc1 [MBX 4278, 1-benzhydryl-6-(pyridin-4-yl)-1H-benzo[d]imidazole]",8.98 µM,4.2 µM,–
